Results published in US6884814B2, “Phenyl benzisoxazoles as estrogenic agents” (Wyeth, priority 2001, dated 2005).

Key:
[1] = target: T1, human ERβ (Homo sapiens, UniProt Q92731); test: Radioligand binding competition with [3H]-17β-estradiol, ERβ; settings: human ERβ ligand binding domain, E. coli lysate, read-out: ER-β IC50
T1 construct: M214-Q530 of human ERβ; Flag (C); made in house; host or cells: E. coli BL21(DE3), clarified lysate

[2] = target: T2, human ERα (Homo sapiens, UniProt P03372); test: Radioligand binding competition with [3H]-17β-estradiol, ERα; settings: human ERα ligand binding domain, E. coli lysate, read-out: ER-α IC50
T2 construct: amino acids M250-V595 of human ERα; His (N); made in house; host or cells: E. coli BL21(DE3), clarified lysate
T2 sequence (P03372 250-595): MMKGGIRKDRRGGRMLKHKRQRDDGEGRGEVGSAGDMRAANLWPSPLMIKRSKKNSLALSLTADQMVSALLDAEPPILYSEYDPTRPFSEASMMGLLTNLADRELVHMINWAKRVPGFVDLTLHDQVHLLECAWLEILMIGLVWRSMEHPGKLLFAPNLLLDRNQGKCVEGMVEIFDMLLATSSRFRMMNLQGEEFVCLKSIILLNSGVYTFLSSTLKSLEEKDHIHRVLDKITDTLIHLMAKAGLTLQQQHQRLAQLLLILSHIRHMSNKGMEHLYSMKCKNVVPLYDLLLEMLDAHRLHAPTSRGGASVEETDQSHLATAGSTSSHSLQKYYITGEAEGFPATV

T1 sequence (Q92731 214-530): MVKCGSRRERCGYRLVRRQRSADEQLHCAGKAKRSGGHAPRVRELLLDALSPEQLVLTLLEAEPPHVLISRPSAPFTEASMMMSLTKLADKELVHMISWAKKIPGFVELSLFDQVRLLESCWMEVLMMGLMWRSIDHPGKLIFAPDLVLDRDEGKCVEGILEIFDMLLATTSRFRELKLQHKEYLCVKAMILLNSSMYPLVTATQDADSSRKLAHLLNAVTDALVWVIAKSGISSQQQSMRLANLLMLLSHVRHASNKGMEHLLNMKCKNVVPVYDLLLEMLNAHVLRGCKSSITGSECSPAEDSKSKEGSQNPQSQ

Row | Structure (SMILES) | IC50 [1] | IC50 [2] | melting point
1 | CCCc1cc(-c2noc3cc(O)ccc23)c(CC(C)C)cc1O [Example 4, 3-(4-Hydroxy-2-isobutyl-5-propylphenyl)-1,2-benzisoxazol-6-ol] | 20 nM | 38 nM | –
2 | Oc1ccc2c(-c3ccccc3O)noc2c1 [Example 9, 3-(2-Hydroxyphenyl)-1,2-benzisoxazol-6-ol] | – | 5000 nM | –
3 | Oc1ccc(O)c(-c2noc3cc(O)ccc23)c1 [Example 10, 2-(6-Hydroxy-1,2-benzisoxazol-3-yl)benzene-1,4-diol] | 254 nM | 3000 nM | 215 to 217 °C
4 | Oc1ccc(-c2noc3c(Br)cc(O)cc23)cc1 [Example 13, 7-Bromo-3-(4-hydroxyphenyl)-1,2-benzisoxazol-5-ol] | 208 nM | 2000 nM | 267 to 270 °C
